Data taken from ChEMBL document CHEMBL6127107, “Oleanolic acid derivatives against drug-resistant bacteria and fungi by multi-targets to avoid drug resistance” (Eur J Med Chem, 2024).
≈ marks a conversion by molar mass, not a printed value. Calls of active or inactive are those of the source. The calls are words filed in the database; no cut-off is given here.

What was measured:
[1] = tested on: Staphylococcus aureus; experiment: Drug resistance, ratio of MIC for methicillin-resistant Staphylococcus aureus measured after 20 days of continuous passage to MIC for methicillin-resistant Staphylococcus aureus measured after first exposure; format: functional
[2] = Hemolytic activity against Mianyang red blood cells (unknown origin); format: toxicity, cell-based, RBC
[3] = tested on: Enterococcus faecalis; experiment: Antimicrobial activity against vancomycin resistant Enterococcus faecalis ATCC 51299; format: functional
[4] = tested on: Staphylococcus aureus; experiment: Antibacterial activity against methicillin-resistant Staphylococcus aureus infected in cyclophosphamide-injected Kunming mouse model of skin wound infection assessed as wound repair by measuring reduction in wound area at 4 mg/kg measured for 7 days by photographic analysis; format: functional, organism-based; conditions: time 7.0 day
[5] = tested on: Staphylococcus aureus; experiment: Antibacterial activity against methicillin-resistant Staphylococcus aureus infected in cyclophosphamide-injected Kunming mouse model of skin wound infection assessed as reduction in bacterial load in skin at 4 mg/kg measured after 7 days; format: functional; conditions: time 7 day
[6] = tested on: DNA; experiment: Binding affinity to methicillin-resistant Staphylococcus aureus DNA assessed as inhibition of DNA migration at 75 microg/ml by electrophoretic analysis; format: nucleic-acid assay; conditions: dose 75.0 µg/ml
[7] = tested on: DNA; experiment: Binding affinity to methicillin-resistant Staphylococcus aureus DNA assessed as change in DNA conformation by UV absorption based analysis; format: nucleic-acid assay
[8] = tested on: DNA; experiment: Binding affinity to methicillin-resistant Staphylococcus aureus DNA assessed as decrease in fluorescence by PI staining based analysis; format: nucleic-acid assay
[9] = tested on: DNA; experiment: Binding affinity to methicillin-resistant Staphylococcus aureus DNA assessed as effect on helical structure by measuring change in positive and negative peaks at 10 to 40 microg/ml by CD spectra; format: nucleic-acid assay; conditions: dose 10-40 µg/ml
[10] = tested on: Cell membrane; experiment: Disruption of cell membrane integrity in methicillin-resistant Staphylococcus aureus assessed as nucleic acid leakage by absorbance based analysis; format: subcellular
[11] = tested on: Staphylococcus aureus; experiment: Antimicrobial activity against Staphylococcus aureus 10; format: functional
[12] = tested on: Staphylococcus aureus; experiment: Synergistic antibacterial activity against methicillin-resistant Staphylococcus aureus assessed as fractional inhibitory concentration index in presence of streptomycin; format: functional
[13] = tested on: Staphylococcus aureus; experiment: Antimicrobial activity against methicillin-resistant Staphylococcus aureus 011; format: functional
[14] = tested on: DNA; experiment: Binding affinity to methicillin-resistant Staphylococcus aureus DNA minor groove assessed as decrease in fluorescence by DAPI staining based analysis; format: nucleic-acid assay
[15] = tested on: Staphylococcus aureus; experiment: Bactericidal activity against methicillin-resistant Staphylococcus aureus assessed as eradication of bacterial growth at 4 times of MIC measured within 6 hrs relative to control; format: functional
[16] = tested on: Staphylococcus aureus; experiment: Synergistic antibacterial activity against methicillin-resistant Staphylococcus aureus assessed as fractional inhibitory concentration index in presence of vancomycin; format: functional
[17] = tested on: Staphylococcus aureus; experiment: Antibacterial activity against methicillin-resistant Staphylococcus aureus assessed as inhibition of bacterial growth at 1 times of MIC; format: functional, organism-based
[18] = tested on: Staphylococcus aureus; experiment: Synergistic antibacterial activity against methicillin-resistant Staphylococcus aureus assessed as fractional inhibitory concentration index in presence of ampicillin; format: functional
[19] = tested on: Staphylococcus aureus; experiment: Synergistic antibacterial activity against methicillin-resistant Staphylococcus aureus assessed as fractional inhibitory concentration index in presence of azithromycin; format: functional
[20] = tested on: Staphylococcus aureus; experiment: Antibacterial activity against methicillin-resistant Staphylococcus aureus in presence of DNA; format: functional, organism-based
[21] = Selectivity index, ratio of HC50 for hemolytic activity against Mianyang red blood cells (unknown origin) to MIC for antimicrobial activity against methicillin resistant Staphylococcus aureus 003; format: toxicity, cell-based, RBC; conditions: read-out: Selectivity Index
[22] = tested on: Staphylococcus aureus; experiment: Synergistic antibacterial activity against methicillin-resistant Staphylococcus aureus assessed as fractional inhibitory concentration index in presence of cefoxitin; format: functional
[23] = tested on: Mitochondrial membrane; experiment: Induction of mitochondrial membrane depolarization in methicillin-resistant Staphylococcus aureus assessed as increase in fluorescence intensity at 1 to 8 times of MIC by DiSC3(5) staining based analysis; format: cell membranes
[24] = tested on: Cell membrane; experiment: Disruption of cell membrane integrity in methicillin-resistant Staphylococcus aureus assessed as cell rupture at 2 to 4 times of MIC by scanning electron microscopic analysis; format: subcellular
[25] = tested on: Staphylococcus aureus; experiment: Synergistic antibacterial activity against methicillin-resistant Staphylococcus aureus assessed as fractional inhibitory concentration index in presence of chloramphenicol; format: functional
[26] = tested on: Staphylococcus aureus; experiment: Antibiofilm activity against methicillin-resistant Staphylococcus aureus assessed as decrease in biofilm biomass at 1 to 8 times of MIC by crystal violet staining based analysis; format: functional, organism-based
[27] = tested on: Escherichia coli; experiment: Antimicrobial activity against Escherichia coli; format: functional
[28] = tested on: Cell membrane; experiment: Disruption of cell membrane integrity in Candida albicans; format: subcellular
[29] = tested on: Staphylococcus aureus; experiment: Antimicrobial activity against methicillin-resistant Staphylococcus aureus in presence of cardiolipin; format: functional, organism-based
[30] = tested on: Staphylococcus aureus; experiment: Antimicrobial activity against methicillin-resistant Staphylococcus aureus 003; format: functional
[31] = tested on: Staphylococcus aureus; experiment: Antimicrobial activity against methicillin-resistant Staphylococcus aureus in presence of phosphatidylethanolamine; format: functional, organism-based
[32] = tested on: Staphylococcus aureus; experiment: Synergistic antibacterial activity against methicillin-resistant Staphylococcus aureus assessed as fractional inhibitory concentration index in presence of chlorpromazine; format: functional
[33] = tested on: Staphylococcus aureus; experiment: Synergistic antibacterial activity against methicillin-resistant Staphylococcus aureus assessed as fractional inhibitory concentration index in presence of fluconazole; format: functional
[34] = tested on: Cell membrane; experiment: Disruption of cell membrane integrity in methicillin-resistant Staphylococcus aureus assessed as increase in ROS level at 2 to 8 times of MIC incubated for 1 hrs; format: subcellular
[35] = tested on: Cell membrane; experiment: Disruption of cell membrane integrity in methicillin-resistant Staphylococcus aureus assessed as cell deformation at 2 to 4 times of MIC by scanning electron microscopic analysis; format: subcellular
[36] = tested on: DNA; experiment: Binding affinity to […] methicillin-resistant Staphylococcus aureus DNA assessed as inhibition of DNA migration by electrophoretic analysis; format: nucleic-acid assay
[37] = tested on: HEK-293T; experiment: Cytotoxicity against HEK293T cells at 64 microg/ml by MTT assay; format: toxicity, cell-based; conditions: human, dose 64 µg/ml
[38] = tested on: Staphylococcus aureus; experiment: Antimicrobial activity against methicillin-resistant Staphylococcus aureus in presence of peptidoglycan; format: functional, organism-based
[39] = tested on: Staphylococcus aureus; experiment: Antibiofilm activity against methicillin-resistant Staphylococcus aureus assessed as decrease in biofilm density at 1 to 8 times of MIC incubated for 24 hrs by fluorescence microscopic analysis; format: functional, organism-based
[40] = tested on: Staphylococcus aureus; experiment: Antibacterial activity against methicillin-resistant Staphylococcus aureus at sub-MIC measured after 20 days of continuous passage; format: functional, organism-based; conditions: time 20.0 day
[41] = tested on: Candida albicans; experiment: Antimicrobial activity against fluconazole-resistant Candida albicans; format: functional
[42] = tested on: Staphylococcus aureus; experiment: Selectivity ratio of MBEC for methicillin-resistant Staphylococcus aureus to MIC for methicillin resistant Staphylococcus aureus; format: functional
[43] = tested on: Staphylococcus aureus; experiment: Antibiofilm activity against methicillin-resistant Staphylococcus aureus assessed as inhibition of biofilm formation at 2 times of MIC by crystal violet staining based analysis relative to control; format: functional
[44] = tested on: Pseudomonas aeruginosa; experiment: Antimicrobial activity against Pseudomonas aeruginosa; format: functional
[45] = tested on: Staphylococcus aureus; experiment: Antimicrobial activity against Staphylococcus aureus 31; format: functional
[46] = tested on: Staphylococcus aureus; experiment: Antimicrobial activity against Staphylococcus aureus 29; format: functional
[47] = tested on: Staphylococcus aureus; experiment: Synergistic antibacterial activity against methicillin-resistant Staphylococcus aureus assessed as fractional inhibitory concentration index in presence of ceftriaxone; format: functional
[48] = tested on: Staphylococcus aureus; experiment: Bactericidal activity against methicillin-resistant Staphylococcus aureus; format: functional, organism-based
[49] = tested on: Staphylococcus aureus; experiment: Synergistic antibacterial activity against methicillin-resistant Staphylococcus aureus assessed as fractional inhibitory concentration index in presence of lincomycin hydrochloride; format: functional
[50] = tested on: Staphylococcus aureus; experiment: Antibiofilm activity against methicillin-resistant Staphylococcus aureus assessed as reduction in number of live cells at 8 times of MIC (reference value: 7.79 log10CFU/ml); format: functional
[51] = tested on: Cell membrane; experiment: Disruption of cell membrane integrity in methicillin-resistant Staphylococcus aureus assessed as increase in PI fluorescence at 2 to 8 times of MIC by PI staining based fluorescence analysis; format: subcellular

CCn1cc(C(=O)O)c(=O)c2cc(F)c(N3CCNCC3)cc21 [NORFLOXACIN]
Ratio [1]: 32

CN[C@H](CC(C)C)C(=O)N[C@H]1C(=O)N[C@@H](CC(N)=O)C(=O)N[C@H]2C(=O)N[C@H]3C(=O)N[C@H](C(=O)N[C@H](C(=O)O)c4cc(O)cc(O)c4-c4cc3ccc4O)[C@H](O)c3ccc(c(Cl)c3)Oc3cc2cc(c3O[C@@H]2O[C@H](CO)[C@@H](O)[C@H](O)[C@H]2O[C@H]2C[C@](C)(N)[C@H](O)[C@H](C)O2)Oc2ccc(cc2Cl)[C@H]1O [VANCOMYCIN]
HC50 [2]: > 256 µg/mL
MIC [3]: 2 µg/mL (≈ 1.38 µM)
Activity [4]: Active
Activity [5]: 0.9 log10CFU/mg

CC1(C)CC[C@]2(C(=O)O)CC[C@]3(C)C(=CC[C@@H]4[C@@]5(C)CC[C@H](OCC(O)CCCNC(=N)N)C(C)(C)[C@@H]5CC[C@]43C)[C@@H]2C1 (stereo not given in full)
Activity [6]: Active
Activity [7]: Active
Activity [8]: Dose-Dependent Effect
Activity [9]: Active
Activity [10]: Active
MIC [11]: 2 µg/mL (≈ 3.33 µM)
fractional inhibitory concentration index (FICI) [12]: 0.25
MIC [13]: 2 µg/mL (≈ 3.33 µM)
Activity [14]: inactive
HC50 [2]: 779 µg/mL
Activity [15]: 99.99%
fractional inhibitory concentration index (FICI) [16]: <=0.5
Activity [17]: Active
fractional inhibitory concentration index (FICI) [18]: <=0.5
fractional inhibitory concentration index (FICI) [19]: <=0.5
MIC [3]: 2 µg/mL (≈ 3.33 µM)
Activity [20]: inactive
selectivity ratio [21]: < 390
fractional inhibitory concentration index (FICI) [22]: <=0.5
Activity [23]: Dose-Dependent Effect
Activity [24]: Active
fractional inhibitory concentration index (FICI) [25]: <=0.5
Activity [26]: Active
MIC [27]: > 64 µg/mL
Activity [28]: Active
Activity [29]: inactive
MIC [30]: > 2 µg/mL
Activity [31]: inactive
fractional inhibitory concentration index (FICI) [32]: <=0.5
fractional inhibitory concentration index (FICI) [33]: <=0.5
Activity [34]: Active
Activity [35]: Active
Activity [36]: Active
Activity [37]: Non-Toxic
Activity [38]: Active
Activity [39]: Dose-Dependent Effect
Activity [40]: Active
MIC [41]: 2 µg/mL (≈ 3.33 µM)
selectivity ratio [42]: 16
inhibition (INH) [43]: >80%
MIC [44]: > 64 µg/mL
MIC [45]: 2 µg/mL (≈ 3.33 µM)
MIC [46]: 4 µg/mL (≈ 6.67 µM)
fractional inhibitory concentration index (FICI) [47]: <=0.5
Activity [48]: Active
fractional inhibitory concentration index (FICI) [49]: <=0.5
Activity [50]: 2.7 log10CFU/ml
Activity [51]: Active

CC1(C)CC[C@]2(C(=O)O)CC[C@]3(C)C(=CC[C@@H]4[C@@]5(C)CC[C@H](OCC(O)CCCCCCCCN)C(C)(C)[C@@H]5CC[C@]43C)[C@@H]2C1 (stereo not given in full)
MIC [11]: 8 µg/mL (≈ 12.7 µM)
MIC [13]: 8 µg/mL (≈ 12.7 µM)
HC50 [2]: 25.2 µg/mL
MIC [3]: 16 µg/mL (≈ 25.5 µM)
selectivity ratio [21]: 3.15
MIC [27]: > 64 µg/mL
MIC [30]: 8 µg/mL (≈ 12.7 µM)
MIC [41]: 32 µg/mL (≈ 51 µM)
MIC [44]: > 64 µg/mL
MIC [45]: 32 µg/mL (≈ 51 µM)
MIC [46]: 8 µg/mL (≈ 12.7 µM)

CC1(C)CC[C@]2(C(=O)O)CC[C@]3(C)C(=CC[C@@H]4[C@@]5(C)CC[C@H](OC(=O)c6ccccc6C(=O)O)C(C)(C)[C@@H]5CC[C@]43C)[C@@H]2C1
MIC [11]: 16 µg/mL (≈ 26.5 µM)
MIC [13]: 32 µg/mL (≈ 52.9 µM)
HC50 [2]: > 1020 µg/mL
MIC [3]: 16 µg/mL (≈ 26.5 µM)
selectivity ratio [21]: > 32
MIC [27]: > 64 µg/mL
MIC [30]: 32 µg/mL (≈ 52.9 µM)
MIC [41]: 8 µg/mL (≈ 13.2 µM)
MIC [44]: > 64 µg/mL
MIC [45]: 64 µg/mL (≈ 106 µM)
MIC [46]: 32 µg/mL (≈ 52.9 µM)
